Experiments:
[1] = system: blood cells in fresh venous whole blood samples (HCT 48%); experiment: Evaluation of hemolytic effect of hemolytic reagents (first absorbance/turbidity); assay type: cell-based; settings: for first absorbance: 750 nm, below 0.05 = hemolytic effect; for hemolytic effects on the blood cells in the blood sample: in most concentration ranges
Experimental: To select hemolytic reagents with a hemolytic effect capable of lysing the blood cells in a blood sample, five candidate hemolytic reagents were selected. Each candidate hemolytic reagent was applied to fresh venous whole blood samples (HCT 48%). The background measurement values (i.e., the first turbidity or first absorbance) of samples treated with each candidate hemolytic reagent were measured. Specifically, the first absorbance of the samples was measured at a wavelength of 750 nm using the A1Care Analyzer by i-SENS, Inc.
The five candidate hemolytic reagents are listed below Table 1. […] A candidate hemolytic reagent was evaluated to have a hemolytic effect on the blood sample if the first turbidity of the sample was below 0.05.

[2] = system: immune reaction between CRP and Anti-CRP antibodies; experiment: Evaluation of antigen-antibody reactivity by hemolytic reagents (second absorbance, 7-Level CRP Serum Samples)
Experimental: The concentrations of each candidate hemolytic reagent were determined as follows Table 2, taking into account the sample influence, including hematocrit.
Furthermore, each candidate hemolytic reagent was applied to 7-Level CRP Serum Samples, followed by an immune reaction between the hemolyzed samples and latex particles coated with Anti-CRP antibodies. Specifically, latex particles coated with Anti-CRP antibodies supplied by RANDOX were concentrated and stabilized with the addition of a stabilizer. The immune reaction was configured to occur between the hemolyzed samples and the latex particles coated with Anti-CRP antibodies.
After the immune reaction, the absorbance of each sample after the immune reaction (referred to as the second absorbance or second turbidity) was measured. Specifically, the second absorbance of the samples was measured at a wavelength of 750 nm using the A1Care Analyzer by i-SENS, Inc.
As for the control group, the experiment was designed to measure the second absorbance after the immune reaction between the 7-Level CRP Serum Samples without the addition of any hemolytic reagent and the latex particles coated with Anti-CRP antibodies. Additionally, the concentrations of the 7-Level CRP Serum Samples were varied from 0 to 195.8 mg/L, and the second absorbance was measured for each sample.

[3] = system: immunoreagent (R2) containing Anti-CRP antibodies (latex particles coated with Anti-CRP antibodies); experiment: Accelerated stability by stabilizers (1), 50° C., 7 days, 1-Level CRP Serum Sample; assay type: physicochemical; settings: stabilizer concentrations as in Table 4
Experimental: To select a stabilizer that ensures the storage stability of the immunoreagent (R2) containing Anti-CRP antibodies, five candidate stabilizers were chosen. Each candidate stabilizer was added to latex particles coated with Anti-CRP antibodies and dried. The reagent solution and 1-Level CRP Serum Sample (CRP 60 mg/L) were added to the dried composition to facilitate the immune reaction between CRP and Anti-CRP antibodies. After the immune reaction, the absorbance was measured to obtain the baseline measurement value for storage on day 0. […]
Furthermore, the dried compositions, containing each candidate stabilizer added to latex particles coated with Anti-CRP antibodies, were stored in an oven at 50° C. […] The immune reaction between CRP and Anti-CRP antibodies was carried out, and the absorbance after the immune reaction was measured to obtain the measurement values for storage days 1, 2, 3, 4, 5, 6, and 7.
As for the control group, the experiment was configured to measure the absorbance after the immune reaction between the 1-Level CRP Serum Sample (CRP 60 mg/L) without the addition of any stabilizer and latex particles coated with Anti-CRP antibodies.
Furthermore, deviations (Bias) were calculated based on the baseline measurement value and the measurement values obtained over the storage period. […]

[4] = system: immunoreagent (R2) containing Anti-CRP antibodies (latex particles coated with Anti-CRP antibodies); experiment: Accelerated stability by stabilizers (2), 50° C., 7 days, 3-Level CRP Serum Samples; assay type: physicochemical; settings: 100 mM
Experimental: To select a stabilizer for ensuring the storage stability of the immunoreagent (R2) containing Anti-CRP antibodies, two candidate stabilizers (Trehalose and Sucrose) with confirmed through Experimental Example 4 storage stability effects were prepared. Each candidate stabilizer was added to latex particles coated with Anti-CRP antibodies and dried. The reagent solution and 3-Level CRP Serum Samples (CRP 10 mg/L, 50 mg/L, 150 mg/L) were added to the dried compositions, and the immune reaction between CRP and Anti-CRP antibodies was carried out. After the immune reaction, the absorbance was measured to obtain the baseline measurement value of storage on day 0.
Each candidate stabilizer was added to latex particles coated with Anti-CRP antibodies, and the dried compositions were stored in an oven at 50° C. The reagent solution was stored separately under refrigeration. At 1-day intervals over a period of 7 days, the reagent solution and 3-Level CRP Serum Samples (CRP 10 mg/L, 50 mg/L, 150 mg/L) were added to the dried compositions containing each candidate stabilizer. The immune reaction between CRP and Anti-CRP antibodies was conducted, and the absorbance after the immune reaction was measured to obtain the measurement values for storage days 1, 2, 3, 4, 5, 6, and 7.
Based on the baseline measurement value and the measurement values obtained during the storage period, deviations (Bias) were calculated.
Additionally, for each condition, the experiment was repeated 5 times, and precision (CV) was calculated.
The two candidate stabilizers are listed below Table 5, and stabilizers with deviations (Bias) measured within 20% throughout the storage period were evaluated as effective for ensuring the storage stability of the immunoreagent (R2). Stabilizers with precision (CV) measured within 10% were evaluated as having excellent precision.

[5] = CRP Serum (50 mg/L, Mid), up to storage day 7
[6] = CRP Serum (150 mg/L, High), up to storage day 7

Compound	hemolytic effects on the blood cells in the blood sample [1]	dissolution of the dried Anti-CRP antibodies (visually confirmed) [3]	deviation (Bias) compared to baseline on day 0 [4, 5] [%]	deviation (Bias) compared to baseline on day 0 [4, 6] [%]	also measured
Sodium deoxycholate [SDC]	exhibited hemolytic effects	–	–	–	first absorbance ([1]; reagent concentration range 0.10-0.11 (w/v %)): greater than 0.05; first absorbance ([1]; reagent concentration range 0.12-0.20 (w/v %)): less than 0.05; effect of the hemolytic reaction on the antigen-antibody reaction between CRP and Anti-CRP antibodies ([2]; 0.13% SDC, 0.03% Saponin): did not affect the antigen-antibody reaction
CCCCCCCCCCCCCC(=O)NCCC[N+](C)(C)CCCS(=O)(=O)[O-] [ASB-14]	exhibited hemolytic effects	–	–	–	first absorbance ([1]; reagent concentration range 0.01-0.03 (w/v %)): greater than 0.05; first absorbance ([1]; reagent concentration range 0.04-0.20 (w/v %)): less than 0.05; decrease of absorbance corresponding to the CRP concentration compared to the control group ([2]; 750 nm, 0.05% ASB-14, CRP serum 0 to 195.8 mg/L): ≥ 50%
OC[C@H]1O[C@H](O[C@H]2O[C@H](CO)[C@@H](O)[C@H](O)[C@H]2O)[C@H](O)[C@@H](O)[C@@H]1O [Trehalose]	–	dissolved properly	≤ 20	≤ 20	deviation (Bias) compared to baseline on day 0 ([4]; CRP Serum (10 mg/L, Low), storage days 5 and 7): > 20%
OC[C@H]1O[C@@](CO)(O[C@H]2O[C@H](CO)[C@@H](O)[C@H](O)[C@H]2O)[C@@H](O)[C@@H]1O [Sucrose]	–	dissolved properly	≤ 20	≤ 20	deviation (Bias) compared to baseline on day 0 ([4]; CRP Serum (10 mg/L, Low), up to storage day 7): ≤ 20%
